≈ marks a conversion by molar mass, not a printed value. Positions of bridges follow the written chain, without caps; N, C: chain ends. Non-standard residues stand in square brackets, D forms with d. Residues, ends and D or L forms follow the SMILES beside them. *: point of attachment. Ileψ(thiazoline)Cys = CC[C@H](C)[C@H](N)C1=N[C@H](C(=O)*)CS1; dOrn = NCCC[C@@H](N)C(=O)O
Columns and labels:
[1] = test system: L. monocytogenes; assay: Sublethal antibiotic concentration determination (growth-rate monitoring); format: cell-based, Listeria monocytogenes EGDe; conditions: for Sublethal concentration (highest antibiotics concentration that did not cause growth-rate inhibition): Table 2; for Sublethal concentrations of antibiotics used in this study: Table 6
Description: (§1) A sublethal concentration for the antibiotics lincomycin, erythromycin, chloramphenicol, kanamycin, ofloxacin, ampicilin and bacitracin (Sigma) was determined for each of the organisms used in this study as follows. Bacterial cultures were propagated in LB or BHI O.N. in triplicates and diluted 1:200 into fresh media. Cultures were grown to early exponential phase (OD600=0.1-0.2) and then supplemented with serially diluted antibiotics stocks. The growth rate was dynamically monitored in intervals of 10-15 min using a 96 well plate format OD reader (Infinite M200 Tecan) for a period of at least 4 hours. […] To identify antibiotic-responsive regulators, bacteria were grown in LB or BHI in triplicates as described above and, upon reaching early exponential phase, 5 ml cultures were independently exposed for 15 minutes to the sublethal concentration of each antibiotic as determined above. Bacteria were then collected by centrifugation, flash frozen and stored in −80° C. until RNA extraction.

[2] = test system: B. subtilis; assay: as above; format: cell-based, Bacillus subtilis str. 168; conditions: for Sublethal concentration (highest antibiotics concentration that did not cause growth-rate inhibition): Table 2; for Sublethal concentrations of antibiotics used in this study: Table 6
Description: as §1

[3] = test system: E. faecalis; assay: as above; format: cell-based, Enterococcus faecalis ATCC 29212; conditions: for Sublethal concentration (highest antibiotics concentration that did not cause growth-rate inhibition): Table 2; for Sublethal concentrations of antibiotics used in this study: Table 6
Description: as §1

[4] = test system: lmo1652 regulatory element (rli59); assay: Antibiotic-dependent transcriptional readthrough by term-seq and RNA-seq; format: cell-based, L. monocytogenes
Description: as §1
(§2) Term-seq average coverage across triplicates was calculated for the premature termination site and the full length gene termination site with a span of 10 nt surrounding each terminator, and the fraction of full length (gene) terminations out of all termination events was used to as a measure of the transcriptional readthrough (FIG. 3A). In cases where the regulator controlled the transcription of a multi-gene operon, which contained internal TSSs in addition to the primary one, RNA-seq was used to determine readthrough in the first gene (FIGS. 4C and 4F). RNA-seq coverage was used to measure the median read coverage over either the regulatory element or the gene, and the ratio between the two (gene-coverage divided by regulator-coverage) was used as an estimate for the short/long transcript ratio generated by regulator activity (FIG. 3A).

[5] = test system: L. monocytogenes Wt; assay: Minimal inhibitory concentration (MIC) determination in broth; format: cell-based; conditions: Listeria monocytogenes, 48 h, BHI, two days at 37° C.
Description: (§3) The MIC was determined in broth culturing conditions in the presence of serially diluted antibiotic concentrations. Briefly, the bacterial strains were grown O.N. at 37° C. in BHI agarose plates and 1-3 single colonies were collected into 1 ml of BHI broth. The OD600 was adjusted to 0.01 and then diluted 1:10 into a 96-well plate containing a final volume of 200 μl BHI supplemented with two-fold serial dilutions of lincomycin, erythromycin and chloramphenicol.

[6] = test system: L. monocytogenes Δlmo0919; assay: as above; format: cell-based, Listeria monocytogenes; conditions: for MIC: Listeria monocytogenes, 48 h
Description: For mutant generation with pMAD-based plasmids^59, ˜600 nt regions of complementarity both upstream and downstream of a targeted region were either ordered as gBlocks (IDT) and amplified with gBlock-Up and Down oligonucleotides (Table 1) complimentary to uniform flanks on each gBlock corresponding to the 40 nts on either side of the pMAD multi-cloning site, or PCR amplified with Phusion High fidelity polymerase and reagents (Finnzymes, F-553) using genomic DNA as a template and then joined by a second splice overlap extension PCR reaction using the first two PCR products as template to generate a Upstream-Downstream (UD) PCR product (Table 1, lmo0919 deletion). PCR products were subsequently purified with QIAquick PCR purification columns (Qiagen, 28104), digested with the SalI and XmaI restriction enzymes (NEB), purified again as before, and ligated into SalI/XmaI digested pMAD plasmid for 1 hr at 25° C. with T4 DNA ligase (NEB, M0202S). 2 μl of each ligation were transformed into chemically competent E. coli Top10 (Invitrogen, C404003) cells according to the manufacturer's instructions. Transformants were screened by PCR and Sanger sequencing for the presence of the appropriate insert. Electrocompetent L. monocytogenes strains were transformed with the respective plasmid and mutagenesis carried out as described previously^59. Briefly, after transformation and plating onto selective BHI, 5 ug/ml erythromycin (Em) 80 ug/ml 5-bromo-4-chloro-3-indolyl-β-D-galactopyranoside (X-gal) plates, bacteria were grown at 30° C. for two days. A single blue colony was picked and transferred to liquid BHI broth and grown for an additional 6 hrs at 30° C. The colony was then diluted 1:1000 into 10 ml of BHI-Em and grown O.N. at 42° C., which prevents pMAD replication in the cytosol owing to a temperature sensitive ori. […]
The MIC was determined in broth culturing conditions in the presence of serially diluted antibiotic concentrations. […]

[7] = test system: L. monocytogenes ΔAnti-terminator; assay: as above; format: cell-based; conditions: Listeria monocytogenes, 48 h
Description: (§4) For mutant generation with pMAD-based plasmids^59, ˜600 nt regions of complementarity both upstream and downstream of a targeted region were either ordered as gBlocks (IDT) and amplified with gBlock-Up and Down oligonucleotides (Table 1) complimentary to uniform flanks on each gBlock corresponding to the 40 nts on either side of the pMAD multi-cloning site, or PCR amplified with Phusion High fidelity polymerase and reagents (Finnzymes, F-553) using genomic DNA as a template and then joined by a second splice overlap extension PCR reaction using the first two PCR products as template to generate a Upstream-Downstream (UD) PCR product (Table 1, lmo0919 deletion). PCR products were subsequently purified with QIAquick PCR purification columns (Qiagen, 28104), digested with the SalI and XmaI restriction enzymes (NEB), purified again as before, and ligated into SalI/XmaI digested pMAD plasmid for 1 hr at 25° C. with T4 DNA ligase (NEB, M0202S). 2 μl of each ligation were transformed into chemically competent E. coli Top10 (Invitrogen, C404003) cells according to the manufacturer's instructions. Transformants were screened by PCR and Sanger sequencing for the presence of the appropriate insert. Electrocompetent L. monocytogenes strains were transformed with the respective plasmid and mutagenesis carried out as described previously^59. Briefly, after transformation and plating onto selective BHI, 5 ug/ml erythromycin (Em) 80 ug/ml 5-bromo-4-chloro-3-indolyl-β-D-galactopyranoside (X-gal) plates, bacteria were grown at 30° C. for two days. A single blue colony was picked and transferred to liquid BHI broth and grown for an additional 6 hrs at 30° C. The colony was then diluted 1:1000 into 10 ml of BHI-Em and grown O.N. at 42° C., which prevents pMAD replication in the cytosol owing to a temperature sensitive ori. Serial dilutions were plated onto BHI-X-gal-Em plates and grown for two days at 42° C., and the process was reiterated several times until white colonies, in which the plasmid integrated into the genome, were recovered. Colonies were screened by colony PCR, and mutants were confirmed by Sanger sequencing.
as §3

[8] = test system: L. monocytogenes uORF ATG > ACG; assay: as above; format: cell-based; conditions: Listeria monocytogenes, 48 h
Description: as §4, §3

[9] = test system: L. monocytogenes ΔAnti-anti-terminator; assay: as above; format: cell-based; conditions: Listeria monocytogenes, 48 h
Description: as §4, §3

[10] = test system: msrC (EF1413) termination-based regulator; assay: Antibiotic-dependent transcriptional readthrough by term-seq and RNA-seq; format: cell-based, E. faecalis; conditions: upon exposure to the antibiotic
Description: as §1
(§5) Term-seq average coverage across triplicates was calculated for the premature termination site and the full length gene termination site with a span of 10 nt surrounding each terminator, and the fraction of full length (gene) terminations out of all termination events was used to as a measure of the transcriptional readthrough (FIG. 3A). […]

[11] = test system: lmo0919 5′UTR regulator (rli53); assay: as above; format: cell-based, L. monocytogenes; conditions: 15 minutes exposure to sublethal concentration
Description: as §1, §2

[12] = test system: lmo0919 regulator; assay: Lincomycin-dependent induction of lmo0919 in ErmC-expressing strain; format: cell-based, L. monocytogenes expressing ErmC; conditions: ErmC-expressing bacteria, ribosomes resistant to lincomycin
Description: FIG. 11 illustrates that the lmo0919 regulator senses ribosome inhibition. L. monocytogenes carrying the ErmC antibiotic resistance gene was assayed for lincomycin dependent induction. In the L. monocytogenes ErmC-expressing strain, in which ribosome are made immune to lincomycin via methylation of A2058 in the 23S rRNA, the lmo0919 regulator is unresponsive to the presence of the antibiotic (red).
The structural alterations in the lmo0919 ribo-regulator could either be mediated by direct binding of the antibiotic to the ribo-regulator (i.e., a riboswitch), or by attenuation, where the lincomycin-inhibited ribosomes stall on a uORF in the ribo-regulator, thus shifting the ribo-regulator structure from a “closed” to an “open” state. To differentiate between direct binding and ribosome-mediated regulation, lincomycin-dependent induction of lmo0919 in L. monocytogenes expressing the ErmC 23S rRNA methyltransferase was measured. In these bacteria the ribosomes are di-methylated at position A2058 of the 23S rRNA, rendering the ribosomes resistant to lincomycin.

[13] = test system: 3aa uORF of the lmo0919 ribo-regulator homolog; assay: Ribosome profiling (Ribo-seq) of ribosome occupancy over the lmo0919 ribo-regulator uORF; format: cell-based; conditions: L. innocua; brief exposure to lincomycin versus control
Description: (§6) FIG. 14 is a graph illustrating lincomycin-dependent ribosome stalling in the lmo0919 ribo-regulator.
(§7) To characterize the effects of lincomycin on the interaction between the ribo-regulator and the ribosome levels of ribosome occupancy over the ribo-regulator in control and lincomycin-treated bacteria were measured using ribosome profiling (Ribo-seq) (23, 42). Strikingly, an ˜5 fold increase in ribosome occupancy over the 3aa uORFs in both L. monocytogenes and L. innocua was measured following brief exposure to lincomycin (FIG. 14) (23).

[14] = test system: 3aa uORF of the lmo0919 ribo-regulator; assay: as above; format: cell-based; conditions: L. monocytogenes; brief exposure to lincomycin versus control
Description: as §6, §7

[15] = test system: EF2720 regulatory element; assay: Antibiotic-dependent transcriptional readthrough by term-seq and RNA-seq; format: cell-based, E. faecalis
Description: as §1, §5

Structure (SMILES)	Sublethal concentration (highest antibiotics concentration that did not cause growth-rate inhibition) [1] [µg/mL]	Sublethal concentrations of antibiotics used in this study [1] [µg/mL]	Sublethal concentration (highest antibiotics concentration that did not cause growth-rate inhibition) [2] [µg/mL]	Sublethal concentrations of antibiotics used in this study [2] [µg/mL]	Sublethal concentration (highest antibiotics concentration that did not cause growth-rate inhibition) [3] [µg/mL]	Sublethal concentrations of antibiotics used in this study [3] [µg/mL]	Response of the lmo1652 regulatory element [4]	MIC [5] [µg/mL]	MIC [6] [µg/mL]	MIC [7] [µg/mL]	MIC [8] [µg/mL]	MIC [9] [µg/mL]	Response of msrC promoter and termination-based regulator [10]	Activation of the lmo0919 5′UTR regulator (readthrough) [11]	Increase in sensitivity upon deletion of lmo0919 ([6]; Δlmo0919 versus wild type L. monocytogenes) [fold]	Responsiveness of the lmo0919 regulator [12]	Increase in ribosome occupancy over the 3aa uORF [13] [fold]	Increase in ribosome occupancy over the 3aa uORF [14] [fold]	Response of the EF2720 regulatory element [15]
CC1(C)S[C@@H]2[C@H](NC(=O)[C@H](N)c3ccccc3)C(=O)N2[C@H]1C(=O)O [Ampicillin]	1	1	0.0625	0.0625	2	2													
CC[C@H](C)[C@H](N)C1=N[C@H](C(=O)N[C@@H](CC(C)C)C(=O)N[C@H](CCC(=O)O)C(=O)N[C@H](C(=O)N[C@H]2CCCCNC(=O)[C@H](CC(N)=O)NC(=O)[C@@H](CC(=O)O)NC(=O)[C@H](Cc3cnc[nH]3)NC(=O)[C@@H](Cc3ccccc3)NC(=O)[C@H]([C@@H](C)CC)NC(=O)[C@@H](CCCN)NC2=O)[C@@H](C)CC)CS1 [Bacitracin] ({Ileψ(thiazoline)Cys}-L[dE]IK[dOrn]I[dF]H[dD]N; lactam 4-C)	8	8	0.125	0.125	1	1													
O=C(N[C@H](CO)[C@H](O)c1ccc([N+](=O)[O-])cc1)C(Cl)Cl [Chloramphenicol]	0.4	0.4	0.2	0.2	0.4	0.4	responds	2 (≈ 6.19 µM)											
CC[C@H]1OC(=O)[C@H](C)[C@@H](O[C@H]2C[C@@](C)(OC)[C@@H](O)[C@H](C)O2)[C@H](C)[C@@H](O[C@@H]2O[C@H](C)C[C@H](N(C)C)[C@H]2O)[C@](C)(O)C[C@@H](C)C(=O)[C@H](C)[C@@H](O)[C@]1(C)O [Erythromycin]	0.03125	0.03125	0.01562	0.01562	0.5	0.5	responds	0.0312 (≈ 0.0426 µM)	0.0625 (≈ 0.0852 µM)	0.0625 (≈ 0.0852 µM)	0.0625 (≈ 0.0852 µM)	0.0312 (≈ 0.0426 µM)	increase both the transcription initiation rate and readthrough into the gene						
NC[C@H]1O[C@H](O[C@H]2[C@H](O)[C@@H](O[C@H]3O[C@H](CO)[C@@H](O)[C@H](N)[C@H]3O)[C@H](N)C[C@@H]2N)[C@H](O)[C@@H](O)[C@@H]1O [Kanamycin]	0.5	0.5	0.5	0.5	16	16													
CCC[C@@H]1C[C@@H](C(=O)N[C@@H]([C@H]2O[C@H](SC)[C@H](O)[C@@H](O)[C@H]2O)[C@@H](C)O)N(C)C1 [Lincomycin]	0.25	0.25	0.5	0.5	2	2	responds	1 (≈ 2.46 µM)	0.25 (≈ 0.615 µM)	0.25 (≈ 0.615 µM)	0.25 (≈ 0.615 µM)	8 (≈ 19.7 µM)		specific activation	4	no longer responsive	~5	~5	respond

— US20180237774A1, “METHODS OF SCREENING FOR RIBOSWITCHES AND ATTENUATORS” (priority 2015, published 2018)
